How the values were obtained:
Assay type in all cases: cell-based
Details in all cases: 48 h; for AAM % / PBS %: 25 μM; for AAM %: mean fluorescence compared with Ac4ManNAz (AAM) positive control; for PBS %: mean fluorescence compared with PBS negative control; for Mean FL (×10^5): compound 25 μM, 37° C., DBCO-biotin then streptavidin-Cy5, mean fluorescence of live cells
A549 cells = test: Flow cytometry analysis of cell labeling (labeling efficiency of azido compounds) in A549 cells
Procedure: (§1) Cells (2.0×10^5 cells/mL, 2 mL) were seeded in a 6-well culture plate and attached at 37° C. overnight. After washed thrice with PBS, the cells were incubated with an azido compound provided herein (25 μM) at 37° C. for 48 h. After washed thrice with PBS, the cells were incubated with DBCO-biotin (50 μM) in 500 μL serum free DMEM at 37° C. for 1 h. The cells were washed thrice with PBS and then incubated with streptavidin-Cy5 (5 μg/mL) in 500 μL serum free DMEM at 37° C. for 1 h. The cells were washed thrice with PBS, followed by addition of 300 μL 1× trypsin/EDTA for digestion. The lifted cells were transferred to a 1.5 mL EP tube, centrifuge at 1,000 rpm for 3 min, and washed with PBS once. Finally, 500 μL PBS containing 4% PFA was added to the cell pellet to fix the cells. The cell suspension was transferred to a flow tube and mixed with 10 μL of a PI working solution (50 μg/mL) at room temperature for 30 min before being subjected to flow cytometry.
(§2) Flow cytometry was used to characterize the labeling efficiency of a compound provided herein. After cells were labeled with an azido group, DBCO-biotin was added to specifically react with the azido group. Avidin-Cy5 was added bind to the cell surface biotin for a flow cytometry analysis. Dead cells were stained with PI and excluded from the analysis. Results were presented as the mean fluorescence of live cells, compared with PBS as a negative control and Ac4ManNAz (AAM) as a positive control, Ac4ManNAz (AAM, CAS: 361154-30-5).

MDA-MB-231 = test: Flow cytometry analysis of cell labeling (labeling efficiency of azido compounds) in MDA-MB-231
Procedure: as §1, §2

OVCAR3 = test: Flow cytometry analysis of cell labeling (labeling efficiency of azido compounds) in OVCAR3
Procedure: as §1, §2

Structure (SMILES): CC(=O)OC1O[C@H](COP(=O)(N[C@@H](C)C(=O)OC(C)C)Oc2ccccc2)[C@@H](OC(C)=O)[C@H](OC(C)=O)[C@@H]1NC(=O)CN=[N+]=[N-] (stereo partly drawn) [Compound A1, acetyl 2-(2-azidoacetylamino)-2-deoxy-3,4-di-O-acetyl-6-O—(((S)-1-isopropoxy-carbonylethylamino)(phenoxy)phosphoryl)-D-mannopyranoside]
- AAM % (A549 cells): 89%
- PBS % (A549 cells): 540%
- Mean FL (×10^5) (A549 cells): 16.2 ×10^5
- AAM % (MDA-MB-231): 101%
- PBS % (MDA-MB-231): 663%
- Mean FL (×10^5) (MDA-MB-231): 12.6 ×10^5

Structure (SMILES): CC(=O)OC1OC(COP(=O)(N[C@@H](C)C(=O)OC(C)c2ccccc2)Oc2ccccc2)C(OC(C)=O)C(OC(C)=O)C1NC(=O)CN=[N+]=[N-] (stereo partly drawn) [Compound A3]
- AAM % (A549 cells): 48%
- PBS % (A549 cells): 294%
- Mean FL (×10^5) (A549 cells): 8.82 ×10^5

Structure (SMILES): CC(=O)OC1OC(COP(=O)(NC(C)(C)C(=O)OC(C)c2ccccc2)Oc2ccccc2)C(OC(C)=O)C(OC(C)=O)C1NC(=O)CN=[N+]=[N-] [Compound A4, 2-(2-Azidoacetylamino)-2-deoxy-3,4-di-O-acetyl-6-O-((1-methyl-1-(1-phenyl-ethoxycarbonyl)ethylamino)(phenoxy)phosphoryl)-D-mannopyranoside]
- AAM % (A549 cells): 51%
- PBS % (A549 cells): 311%
- Mean FL (×10^5) (A549 cells): 9.32 ×10^5

Structure (SMILES): CC(=O)OC1OC(COP(=O)(N[C@H](C(=O)OC(C)c2ccccc2)C(C)C)Oc2ccccc2)C(OC(C)=O)C(OC(C)=O)C1NC(=O)CN=[N+]=[N-] (stereo partly drawn) [Compound A5, 2-(2-Azidoacetylamino)-2-deoxy-3,4-di-O-acetyl-6-O-(((1S)-1-(1-phenylethoxy-carbonyl)-2-methylpropylamino)(phenoxy)phosphoryl)-D-mannopyranoside]
- AAM % (A549 cells): 20%
- PBS % (A549 cells): 118%
- Mean FL (×10^5) (A549 cells): 3.55 ×10^5

Structure (SMILES): CCCCOC(=O)[C@H](C)NP(=O)(OC[C@H]1OC(OC(C)=O)[C@@H](NC(=O)CN=[N+]=[N-])[C@@H](OC(C)=O)[C@@H]1OC(C)=O)Oc1ccccc1 (stereo partly drawn) [Compound A18, acetyl 2-(2-azidoacetylamino)-2-deoxy-3,4-di-O-acetyl-6-O—(((S)-1-butoxy-carbonylethylamino)(phenoxy)phosphoryl)-D-mannopyranoside]
- AAM % (MDA-MB-231): 99%
- PBS % (MDA-MB-231): 653%
- Mean FL (×10^5) (MDA-MB-231): 12.4 ×10^5

Structure (SMILES): CC(=O)OC1O[C@H](COP(=O)(N[C@@H](C)C(=O)OC(C)(C)C)Oc2ccccc2)[C@@H](OC(C)=O)[C@H](OC(C)=O)[C@@H]1NC(=O)CN=[N+]=[N-] (stereo partly drawn) [Compound A20, acetyl 2-(2-azidoacetylamino)-2-deoxy-3,4-di-O-acetyl-6-O—(((S)-1-tert-butoxy-carbonylethylamino)(phenoxy)phosphoryl)-D-mannopyranoside]
- AAM % (MDA-MB-231): 51%
- PBS % (MDA-MB-231): 338%
- Mean FL (×10^5) (MDA-MB-231): 6.43 ×10^5

Structure (SMILES): CCCCCCOC(=O)[C@H](C)NP(=O)(OC[C@H]1OC(OC(C)=O)[C@@H](NC(=O)CN=[N+]=[N-])[C@@H](OC(C)=O)[C@@H]1OC(C)=O)Oc1ccccc1 (stereo partly drawn) [Compound A22, Acetyl 2-(2-azidoacetylamino)-2-deoxy-3,4-di-O-acetyl-6-O—(((S)-1-hexoxy-carbonylethylamino)(phenoxy)phosphoryl)-D-mannopyranoside]
- AAM % (MDA-MB-231): 104%
- PBS % (MDA-MB-231): 684%
- Mean FL (×10^5) (MDA-MB-231): 13.0 ×10^5

Structure (SMILES): CCC(CC)COC(=O)[C@H](C)NP(=O)(OC[C@H]1OC(OC(C)=O)[C@@H](NC(=O)CN=[N+]=[N-])[C@@H](OC(C)=O)[C@@H]1OC(C)=O)Oc1ccccc1 (stereo partly drawn) [Compound A23, Acetyl 2-(2-azidoacetylamino)-2-deoxy-3,4-di-O-acetyl-6-O—(((S)-1-(2-ethyl-butoxy)carbonylethylamino)(phenoxy)phosphoryl)-D-mannopyranoside]
- AAM % (MDA-MB-231): 98%
- PBS % (MDA-MB-231): 642%
- Mean FL (×10^5) (MDA-MB-231): 12.2 ×10^5

Structure (SMILES): CC(=O)OC1O[C@H](COP(=O)(N[C@@H](C)C(=O)OCc2cccnc2)Oc2ccccc2)[C@@H](OC(C)=O)[C@H](OC(C)=O)[C@@H]1NC(=O)CN=[N+]=[N-] (stereo partly drawn) [Compound A24, Acetyl 2-(2-azidoacetylamino)-2-deoxy-3,4-di-O-acetyl-6-O—(((S)-1-pyridin-3-ylmethoxycarbonylethylamino)(phenoxy)phosphoryl)-D-mannopyranoside]
- AAM % (OVCAR3): 28.7%
- PBS % (OVCAR3): 5923%
- Mean FL (×10^5) (OVCAR3): 0.77 ×10^5

Structure (SMILES): CC(=O)OC1O[C@H](COP(=O)(N[C@@H](C)C(=O)OCc2ccncc2)Oc2ccccc2)[C@@H](OC(C)=O)[C@H](OC(C)=O)[C@@H]1NC(=O)CN=[N+]=[N-] (stereo partly drawn) [Compound A25, Acetyl 2-(2-azidoacetylamino)-2-deoxy-3,4-di-O-acetyl-6-O—(((S)-1-pyridin-4-ylmethoxycarbonylethylamino)(phenoxy)phosphoryl)-D-mannopyranoside]
- AAM % (OVCAR3): 26.9%
- PBS % (OVCAR3): 5538%
- Mean FL (×10^5) (OVCAR3): 0.72 ×10^5

Structure (SMILES): CC(=O)OC1O[C@H](COP(=O)(N[C@@H](C)C(=O)OCc2ccnc3ccccc23)Oc2ccccc2)[C@@H](OC(C)=O)[C@H](OC(C)=O)[C@@H]1NC(=O)CN=[N+]=[N-] (stereo partly drawn) [Compound A26, Acetyl 2-(2-azidoacetylamino)-2-deoxy-3,4-di-O-acetyl-6-O—(((S)-1-quinolin-4-ylmethoxycarbonylethylamino)(phenoxy)phosphoryl)-D-mannopyranoside]
- AAM % (MDA-MB-231): 144%
- PBS % (MDA-MB-231): 947%
- Mean FL (×10^5) (MDA-MB-231): 18.0 ×10^5
- AAM % (OVCAR3): 89.6%
- PBS % (OVCAR3): 18462%
- Mean FL (×10^5) (OVCAR3): 2.4 ×10^5

Structure (SMILES): CC(=O)OC1O[C@H](COP(=O)(N[C@@H](C)C(=O)OCc2cccc3ncccc23)Oc2ccccc2)[C@@H](OC(C)=O)[C@H](OC(C)=O)[C@@H]1NC(=O)CN=[N+]=[N-] (stereo partly drawn) [Compound A27, Acetyl 2-(2-azidoacetylamino)-2-deoxy-3,4-di-O-acetyl-6-O—(((S)-1-quinolin-5-ylmethoxycarbonylethylamino)(phenoxy)phosphoryl)-D-mannopyranoside]
- AAM % (MDA-MB-231): 109%
- PBS % (MDA-MB-231): 716%
- Mean FL (×10^5) (MDA-MB-231): 13.6 ×10^5
- AAM % (OVCAR3): 93.3%
- PBS % (OVCAR3): 19231%
- Mean FL (×10^5) (OVCAR3): 2.5 ×10^5

Structure (SMILES): CC(=O)OC[C@H]1OC(OP(=O)(N[C@@H](C)C(=O)OC(C)c2ccccc2)Oc2ccccc2)[C@@H](NC(=O)CN=[N+]=[N-])[C@@H](OC(C)=O)[C@@H]1OC(C)=O (stereo partly drawn) [Compound B1, (((1S)-1-(1-Phenylethoxy-carbonyl)ethylamino)(phenoxy)phosphoryl) 2-(2-azidoacetylamino)-2-deoxy-3,4,6-tri-O-acetyl-D-mannopyranoside]
- AAM % (A549 cells): 42%
- PBS % (A549 cells): 256%
- Mean FL (×10^5) (A549 cells): 7.67 ×10^5

Source: patent publication US20260199382A1, “PHOSPHORAMIDATE MONOSACCARIDES, PHARMACEUTICAL COMPOSITIONS, AND DIAGNOSTIC AND THERAPEUTIC APPLICATIONS” (Surio Therapeutics Co., LTD., priority 2022, published 2026)
